{"source": "patent US8283373B2", "about": "“Inhibitors of cytosolic phospholipase A2” (Pfizer Inc., priority 2005, dated 2012)", "key": {"[1]": {"system": "Ascaris suum antigen-induced bronchoconstriction and AHR", "conditions": "literature (Abraham et al. 1992; Jones et al. 1995); cited from earlier work"}, "[2]": {"system": "atherosclerosis in ApoE KO mice", "assay": "ApoE KO mouse model of atherosclerosis (20 weeks)", "type": "in vivo", "conditions": "for decrease of atherosclerotic plaque burden at the aortic sinus vs control / atherosclerotic plaque burden at the aortic sinus: 20 weeks; for atherosclerotic plaque burden at the aortic sinus: control 519220±100694; for Atherosclerotic Lesions Along the Aorta (percent lesion area), % Decrease vs Control: ns = not significant", "method": "The apolipoprotein E (ApoE) knockout mouse was created by gene targeting in embryonic stem cells to disrupt the ApoE gene. ApoE is a glycoprotein that is responsible for the uptake of chylomicrons and VLDL particles by the liver, thereby preventing the accumulation of cholesterol rich remnants in the blood stream.\nSix week old male ApoE KO mice were treated with 4-{3-[1-benzhydryl-5-chloro-2-(2-{[(3,4-dichlorobenzyl)sulfonyl]amino}ethyl)-1H-indol-3-yl]propyl}benzoic acid (Compound C)."}, "[3]": {"system": "primary dopaminergic neurons", "assay": "MPP+ exposure in dopaminergic neurons", "type": "cell-based, rat", "conditions": "10 μM MPP+ 60 minutes, control 100, MPP+ alone 56.6", "method": "Primary dopaminergic neurons were isolated from E15 rat embryos as described in Pong K., et al., (1997) J. Neurochem. 69 986-994. Briefly, the ventral mesencephalon was isolated and tissue was pooled in ice-cold phosphate buffer saline (PBS) without Ca^2+ and Mg^2+. The tissue was transferred to an enzymatic dissociation media containing 20 IU/ml papain in Earle's balanced salt solution (Worthington Biochemical, Freehold, N.J.) and incubated for 30 minutes at 37° C. After enzymatic dissociation, the papain solution was aspirated and the tissue mechanically triturated with a fire-polished Pasteur pipette in complete media [Neurobasal Medium with B-27 supplement (Gibco, Grand Island, N.Y.), penicillin/streptomycin, aphidicolin, glutamate] containing 2,000 IU/ml DNase and 10 mg/ml ovomucoid protease inhibitor. Single-cell suspensions in complete media were plated on pre-coated poly-L-ornithine/laminin 24-well plates (Becton-Dickinson, Bedford, Mass.) at a density of 5.0×10^5 cells/well. Cells were maintained for one week prior to experimentation.\nCultures were exposed to 10 μM MPP^+ for 60 minutes. After the exposure, fresh media was exchanged and fresh compound was added. Dopaminergic neuron viability was determined 24 hours later by measuring ^3H-dopamine uptake as described in Pong et al., 1997, supra."}, "[4]": {"assay": "Drug exposure in ApoE KO mice fed supplemented chow", "type": "in vivo, mouse", "conditions": "chow supplemented at 3.3 mg/g"}, "[5]": {"system": "Human platelet aggregation", "assay": "Platelet Function Analyzer (PFA-100) study", "type": "cell-based", "conditions": "whole human blood, Collagen/Epinephrine cartridges, 1.25 μg/ml", "method": "Human platelet aggregation was studied using the platelet function analyzer (PFA-100®). Human blood was collected from volunteers who had denied taking any platelet inhibitory medications over the previous two weeks. Blood was collected in 3.2% sodium citrate Vacutainer tubes (Becton Dickinson). Tubes were inverted 5 times and the blood was transferred to 15 ml polypropylene conical tubes. […] Tubes were inverted 10 times to mix, and allowed to sit at room temperature for 10 minutes prior to run in PFA-100. The manufacturers protocol was followed for the PFA-100 using Collagen/Epinephrine cartridges (0.5% DMSO alone in whole blood gave closure times of 125+/−13.9 seconds). Maximum closure time is 300 seconds, as set by the manufacturer.\nAll compounds were efficacious in the platelet function assay."}, "serum thromboxane B2": {"system": "serum thromboxane B2", "assay": "Thromboxane B2 levels in the ApoE KO mouse model", "type": "in vivo", "conditions": "ApoE KO mice, 3.3 mg/g chow for two days; vehicle 76.1±17.3", "method": "Blood was collected through the retro-orbital siunus and left to coagulate at 37° C. for one hour. Serum was then isolated and assayed for thromboxane B2 by ELISA.\nIn a separate experiment, ApoE KO mice were dosed with vehicle or the compound of Example 25 at 10 mg/kg by oral gavage. Blood was collected through the retro-orbital siunus and left to coagulate at 37° C. for one hour. Serum was then isolated and assayed for thromboxane B2 by ELISA."}}}
{"smiles": "CC(c1cc2ccccc2s1)N(O)C(N)=O", "note": "(stereo not shown) [zileuton]", "values": [{"measurement": "effect on antigen-induced airway responses in the sheep model", "setting": "[1]", "result": "blocks antigen-induced late airway responses, inflammation, and AHR"}]}
{"smiles": "O=C(O)c1ccc(CCCc2c(CCNS(=O)(=O)Cc3ccc(Cl)c(Cl)c3)n(C(c3ccccc3)c3ccccc3)c3ccc(Cl)cc23)cc1", "note": "[Compound C, 4-{3-[1-benzhydryl-5-chloro-2-(2-{[(3,4-dichlorobenzyl)sulfonyl]amino}ethyl)-1H-indol-3-yl]propyl}benzoic acid]", "values": [{"measurement": "Serum thromboxane B2 levels compared to control animals", "setting": "[2]; 1.3 mg/g and 3.3 mg/g chow, after 9 and 20 weeks of treatment", "result": "significantly decreased"}, {"measurement": "percent of total animals with Stage 3 (advanced fibrous plaque)", "setting": "[2]; 1.3 mg/g chow", "result": 33, "unit": "%"}, {"measurement": "percent of total animals with Stage 4 (stable complicated lesion)", "setting": "[2]; 1.3 mg/g chow", "result": 56, "unit": "%"}, {"measurement": "percent of total animals with Stage 5 (unstable complicated lesion)", "setting": "[2]; 1.3 mg/g chow", "result": 11, "unit": "%"}, {"measurement": "decrease of atherosclerotic plaque burden at the aortic sinus vs control", "setting": "[2]; 1.3 mg/g chow, p<0.05", "result": 32.7, "unit": "%"}, {"measurement": "atherosclerotic plaque burden at the aortic sinus", "setting": "[2]; 1.3 mg/g chow", "result": "349582±132685", "unit": "μm^2"}, {"measurement": "Serum Thromboxane B2 Levels, % Decrease vs Control", "setting": "[2]; 1.3 mg/g chow, after 9 weeks of treatment", "result": 52.5, "unit": "%"}, {"measurement": "Serum Thromboxane B2 Levels, % Decrease vs Control", "setting": "[2]; 1.3 mg/g chow, after 20 weeks of treatment", "result": 36.6, "unit": "%"}, {"measurement": "Atherosclerotic Lesions Along the Aorta (percent lesion area), % Decrease vs Control", "setting": "[2]; 1.3 mg/g chow", "result": 32.4, "unit": "ns %"}, {"measurement": "percent of total animals with Stage 1 (fibrofatty lesion)", "setting": "[2]; 3.3 mg/g chow", "result": 9, "unit": "%"}, {"measurement": "percent of total animals with Stage 2 (early fibrous plaque)", "setting": "[2]; 3.3 mg/g chow", "result": 18, "unit": "%"}, {"measurement": "percent of total animals with Stage 3 (advanced fibrous plaque)", "setting": "[2]; 3.3 mg/g chow", "result": 37, "unit": "%"}, {"measurement": "percent of total animals with Stage 4 (stable complicated lesion)", "setting": "[2]; 3.3 mg/g chow", "result": 27, "unit": "%"}, {"measurement": "percent of total animals with Stage 5 (unstable complicated lesion)", "setting": "[2]; 3.3 mg/g chow", "result": 9, "unit": "%"}, {"measurement": "decrease of atherosclerotic plaque burden at the aortic sinus vs control", "setting": "[2]; 3.3 mg/g chow, p<0.001", "result": 45.6, "unit": "%"}, {"measurement": "atherosclerotic plaque burden at the aortic sinus", "setting": "[2]; 3.3 mg/g chow", "result": "282697±146462", "unit": "μm^2"}, {"measurement": "Serum Thromboxane B2 Levels, % Decrease vs Control", "setting": "[2]; 3.3 mg/g chow, after 9 weeks of treatment", "result": 61.2, "unit": "%"}, {"measurement": "Serum Thromboxane B2 Levels, % Decrease vs Control", "setting": "[2]; 3.3 mg/g chow, after 20 weeks of treatment", "result": 49.5, "unit": "%"}, {"measurement": "Atherosclerotic Lesions Along the Aorta (percent lesion area), % Decrease vs Control", "setting": "[2]; 3.3 mg/g chow", "result": 35.2, "unit": "ns %"}, {"measurement": "atherosclerotic lesion complexity at the aortic sinus vs control", "setting": "[2]; 1.3 and 3.3 mg/g chow", "result": "reduced"}, {"measurement": "dopaminergic neuron viability (3H-dopamine uptake), Avg.", "setting": "[3]; 0.3 μM", "result": 68.6}, {"measurement": "dopaminergic neuron viability (3H-dopamine uptake), Avg.", "setting": "[3]; 1 μM", "result": 70.6}, {"measurement": "dopaminergic neuron viability (3H-dopamine uptake), Avg.", "setting": "[3]; 3 μM", "result": 75.9}, {"measurement": "dopaminergic neuron viability (3H-dopamine uptake), Avg.", "setting": "[3]; 10 μM", "result": 79.6}, {"measurement": "maximum drug exposure", "setting": "[4]", "result": "~500", "unit": "ng/mL"}, {"measurement": "PFA-100 closure time", "setting": "[5]", "result": "increased closure time"}, {"measurement": "serum Thromboxane concentration", "setting": "serum thromboxane B2", "result": "33.5 ± 11.6", "unit": "ng/mL"}]}
